Legend:
Assay type in all cases: functional
U-251 = test: Growth inhibition of human U251 cells assessed as cell growth at 5X10'-6 M after 48 hrs by sulforhodamine B assay; conditions: U-251, 48 h, read-out: Activity
NCI-H23 = test: Growth inhibition of human NCI-H23 cells assessed as cell growth at 5X10'-9 M after 48 hrs by sulforhodamine B assay; conditions: NCI-H23, 48 h, read-out: Activity
MDA-MB-435 [1] = test: Growth inhibition of human MDA-MB-435 cells assessed as cell growth at 5X10'-6 M after 48 hrs by sulforhodamine B assay; conditions: MDA-MB-435, 48 h, read-out: Activity
HT-29 [2] = test: Growth inhibition of human HT-29 cells assessed as cell growth at 5X10'-6 M after 48 hrs by sulforhodamine B assay; conditions: HT-29, 48 h, read-out: Activity
RPMI-8226 [3] = test: Growth inhibition of human RPMI8226 cells assessed as cell growth at 5X10'-5 M after 48 hrs by sulforhodamine B assay; conditions: RPMI-8226, 48 h, read-out: Activity
MDA-MB-435 [4] = test: Growth inhibition of human MDA-MB-435 cells assessed as cell growth at 5X10'-8 M after 48 hrs by sulforhodamine B assay; conditions: MDA-MB-435, 48 h, read-out: Activity
RPMI-8226 [5] = test: Growth inhibition of human RPMI8226 cells assessed as cell growth at 5X10'-7 M after 48 hrs by sulforhodamine B assay; conditions: RPMI-8226, 48 h, read-out: Activity
TK-10 [6] = test: Growth inhibition of human TK10 cells assessed as cell growth at 5X10'-7 M after 48 hrs by sulforhodamine B assay; conditions: TK-10, 48 h, read-out: Activity
HCT-116 = test: Growth inhibition of human HCT116 cells assessed as cell growth at 5X10'-8 M after 48 hrs by sulforhodamine B assay; conditions: HCT-116, 48 h, read-out: Activity
TK-10 [7] = test: Growth inhibition of human TK10 cells assessed as cell growth at 5X10'-6 M after 48 hrs by sulforhodamine B assay; conditions: TK-10, 48 h, read-out: Activity
HOP-92 = test: Growth inhibition of human HOP92 cells assessed as cell growth at 5X10'-6 M after 48 hrs by sulforhodamine B assay; conditions: HOP-92, 48 h, read-out: Activity
SNB-19 = test: Growth inhibition of human SNB19 cells assessed as cell growth at 5X10'-6 M after 48 hrs by sulforhodamine B assay; conditions: SNB-19, 48 h, read-out: Activity
Malme-3M = test: Growth inhibition of human MALME-3M cells assessed as cell growth at 5X10'-8 M after 48 hrs by sulforhodamine B assay; conditions: read-out: Activity
HL-60(TB) [8] = test: Growth inhibition of human HL-60(TB) cells assessed as cell growth at 5X10'-7 M after 48 hrs by sulforhodamine B assay; conditions: HL-60, 48 h, read-out: Activity
MCF7 [9] = test: Growth inhibition of human MCF7 cells assessed as cell growth at 5X10'-9 M after 48 hrs by sulforhodamine B assay; conditions: MCF7, 48 h, read-out: Activity
SK-MEL-5 = test: Growth inhibition of human SK-MEL-5 cells assessed as cell growth at 5X10'-6 M after 48 hrs by sulforhodamine B assay; conditions: SK-MEL-5, 48 h, read-out: Activity
RPMI-8226 [10] = test: Growth inhibition of human RPMI8226 cells assessed as cell growth at 5X10'-8 M after 48 hrs by sulforhodamine B assay; conditions: RPMI-8226, 48 h, read-out: Activity
BT-549 = test: Growth inhibition of human BT549 cells assessed as cell growth at 5X10'-5 M after 48 hrs by sulforhodamine B assay; conditions: BT-549, 48 h, read-out: Activity
ACHN [11] = test: Growth inhibition of human ACHN cells assessed as cell growth at 5X10'-9 M after 48 hrs by sulforhodamine B assay; conditions: read-out: Activity
OVCAR-8 = test: Growth inhibition of human OVCAR8 cells assessed as cell growth at 5X10'-8 M after 48 hrs by sulforhodamine B assay; conditions: OVCAR-8, 48 h, read-out: Activity
HT-29 [12] = test: Growth inhibition of human HT-29 cells assessed as cell growth at 5X10'-9 M after 48 hrs by sulforhodamine B assay; conditions: HT-29, 48 h, read-out: Activity
NCI-H522 = test: Growth inhibition of human NCI-H522 cells assessed as cell growth at 5X10'-8 M after 48 hrs by sulforhodamine B assay; conditions: NCI-H522, 48 h, read-out: Activity
786-0 = test: Growth inhibition of human 786-0 cells assessed as cell growth at 5X10'-7 M after 48 hrs by sulforhodamine B assay; conditions: 786-0, 48 h, read-out: Activity
MDA-MB-468 = test: Growth inhibition of human MDA-MB-468 cells assessed as cell growth at 5X10'-9 M after 48 hrs by sulforhodamine B assay; conditions: MDA-MB-468, 48 h, read-out: Activity
ACHN [13] = test: Growth inhibition of human ACHN cells assessed as cell growth at 5X10'-7 M after 48 hrs by sulforhodamine B assay; conditions: read-out: Activity
RXF 393 = test: Growth inhibition of human RXF393 cells assessed as cell growth at 5X10'-5 M after 48 hrs by sulforhodamine B assay; conditions: RXF 393, 48 h, read-out: Activity
COLO 205 = test: Growth inhibition of human COLO205 cells assessed as cell growth at 5X10'-9 M after 48 hrs by sulforhodamine B assay; conditions: COLO 205, 48 h, read-out: Activity
PC-3 = test: Growth inhibition of human PC3 cells assessed as cell growth at 5X10'-9 M after 48 hrs by sulforhodamine B assay; conditions: PC-3, 48 h, read-out: Activity
SF-295 = test: Growth inhibition of human SF295 cells assessed as cell growth at 5X10'-5 M after 48 hrs by sulforhodamine B assay; conditions: SF-295, 48 h, read-out: Activity
[14] = Growth inhibition of human NCI-ADR-RES cells assessed as cell growth at 5X10'-8 M after 48 hrs by sulforhodamine B assay; conditions: read-out: Activity
RPMI-8226 [15] = test: Growth inhibition of human RPMI8226 cells assessed as cell growth at 5X10'-6 M after 48 hrs by sulforhodamine B assay; conditions: RPMI-8226, 48 h, read-out: Activity
K562 [16] = test: Growth inhibition of human K562 cells assessed as cell growth at 5X10'-9 M after 48 hrs by sulforhodamine B assay; conditions: K562, 48 h, read-out: Activity
ACHN [17] = test: Growth inhibition of human ACHN cells assessed as cell growth at 5X10'-5 M after 48 hrs by sulforhodamine B assay; conditions: read-out: Activity
MCF7 [18] = test: Growth inhibition of human MCF7 cells assessed as cell growth at 5X10'-8 M after 48 hrs by sulforhodamine B assay; conditions: MCF7, 48 h, read-out: Activity
K562 [19] = test: Growth inhibition of human K562 cells assessed as cell growth at 5X10'-8 M after 48 hrs by sulforhodamine B assay; conditions: K562, 48 h, read-out: Activity
SF-268 = test: Growth inhibition of human SF268 cells assessed as cell growth at 5X10'-6 M after 48 hrs by sulforhodamine B assay; conditions: SF-268, 48 h, read-out: Activity
HL-60(TB) [20] = test: Growth inhibition of human HL-60(TB) cells assessed as cell growth at 5X10'-9 M after 48 hrs by sulforhodamine B assay; conditions: HL-60, 48 h, read-out: Activity

`O=C(Nc1cccc(-n2cc(-c3ccncc3)c(-c3ccc(Cl)c(O)c3)n2)c1)Nc1cc(C(F)(F)F)cc(C(F)(F)F)c1` showed a growth at 5 µM (U-251) of -83%, a growth at 0.005 µM (NCI-H23) of 98% and a growth at 5 µM (MDA-MB-435 [1]) of -31%. It also gave a growth at 5 µM (HT-29 [2]) of -54%, a growth at 50 µM (RPMI-8226 [3]) of 5% and a growth at 0.05 µM (MDA-MB-435 [4]) of 96%. It also gave a growth at 0.5 µM (RPMI-8226 [5]) of 49%, a growth at 0.5 µM (TK-10 [6]) of 75% and a growth at 0.05 µM (HCT-116) of 102%. For the same molecule, the growth at 5 µM (TK-10 [7]) was -13%, the growth at 5 µM (HOP-92) was -38% and the growth at 5 µM (SNB-19) was 16%. The growth at 0.05 µM (Malme-3M) was 100%, the growth at 0.5 µM (HL-60(TB) [8]) was 93% and the growth at 0.005 µM (MCF7 [9]) was 91%. The growth at 5 µM (SK-MEL-5) was -94%, the growth at 0.05 µM (RPMI-8226 [10]) was 95% and the growth at 50 µM (BT-549) was -90%. For the same molecule, the growth at 0.005 µM (ACHN [11]) was 103%, the growth at 0.05 µM (OVCAR-8) was 93% and the growth at 0.005 µM (HT-29 [12]) was 110%. It also gave a growth at 0.05 µM (NCI-H522) of 102%, a growth at 0.5 µM (786-0) of 93% and a growth at 0.005 µM (MDA-MB-468) of 94%. For the same molecule, the growth at 0.5 µM (ACHN [13]) was 55%, the growth at 50 µM (RXF 393) was -79% and the growth at 0.005 µM (COLO 205) was 105%. It also gave a growth at 0.005 µM (PC-3) of 90%, a growth at 50 µM (SF-295) of -76% and a growth at 0.05 µM [14] of 103%. The growth at 5 µM (RPMI-8226 [15]) was 4%, the growth at 0.005 µM (K562 [16]) was 105% and the growth at 50 µM (ACHN [17]) was -95%. The growth at 0.05 µM (MCF7 [18]) was 85%, the growth at 0.05 µM (K562 [19]) was 108% and the growth at 5 µM (SF-268) was -27%. For the same molecule, the growth at 0.005 µM (HL-60(TB) [20]) was 115%.
